ChEMBL document CHEMBL1139320, “PEG-immobilization of cardol and soluble polymer-supported synthesis of some cardol-coumarin derivatives: preliminary evaluation of their inhibitory activity on mushroom tyrosinase” (Bioorg Med Chem Lett, 2009)
pIC50: −log10 of the molar value.

Target: T1, Tyrosinase (Agaricus bisporus, UniProt O42713)
T1 sequence (O42713 whole entry): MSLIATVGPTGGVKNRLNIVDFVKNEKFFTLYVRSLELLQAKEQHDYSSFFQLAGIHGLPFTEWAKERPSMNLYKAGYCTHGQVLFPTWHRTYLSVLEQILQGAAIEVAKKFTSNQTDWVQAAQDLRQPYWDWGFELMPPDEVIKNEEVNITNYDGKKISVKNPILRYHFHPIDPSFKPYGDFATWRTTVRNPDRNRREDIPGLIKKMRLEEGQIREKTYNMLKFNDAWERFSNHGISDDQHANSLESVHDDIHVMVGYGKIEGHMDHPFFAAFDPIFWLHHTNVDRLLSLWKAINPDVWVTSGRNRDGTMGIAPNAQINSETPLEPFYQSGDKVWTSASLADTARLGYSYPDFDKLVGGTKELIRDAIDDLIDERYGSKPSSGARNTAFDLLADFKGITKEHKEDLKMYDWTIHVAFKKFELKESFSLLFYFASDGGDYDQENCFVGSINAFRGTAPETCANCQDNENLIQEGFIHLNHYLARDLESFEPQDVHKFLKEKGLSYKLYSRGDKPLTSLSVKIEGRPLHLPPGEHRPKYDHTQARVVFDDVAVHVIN
Description: Inhibition of mushroom tyrosine kinase assessed as oxidation of 0.25 mM L-3,4-dihydroxyphenylalanine

Row | Structure (SMILES) | pIC50
1 | CCCCCCc1ccc(O)cc1O [HEXYLRESORCINOL] | 6.01
2 | Oc1cccc(O)c1 [RESORCINOL] | 2.84
